Values after ≈ are worked out from the molar mass of the structure shown. Each block holds one compound with its values, some of them ahead of it. Active and inactive are the calls of the source. The calls are words filed in the database; no cut-off is given here.
Columns and labels:
Staphylococcus aureus [1] = experiment: Antimicrobial activity against Staphylococcus aureus N315 assessed as reduction in bacterial growth incubated for 24 hrs by two-fold broth dilution method; assay type: functional
Staphylococcus aureus [2] = experiment: Antimicrobial activity against Staphylococcus aureus ATCC6538 assessed as reduction in bacterial growth incubated for 24 hrs by two-fold broth dilution method; assay type: functional
Staphylococcus aureus [3] = experiment: Antimicrobial activity against methicillin resistant Staphylococcus aureus clinical isolate MRS108 assessed as reduction in bacterial growth incubated for 24 hrs by two-fold broth dilution method; assay type: functional
Staphylococcus aureus [4] = experiment: Antimicrobial activity against methicillin resistant Staphylococcus aureus clinical isolate MRS97 assessed as reduction in bacterial growth incubated for 24 hrs by two-fold broth dilution method; assay type: functional
Staphylococcus aureus [5] = experiment: Antimicrobial activity against methicillin resistant Staphylococcus aureus clinical isolate MRS207 assessed as reduction in bacterial growth incubated for 24 hrs by two-fold broth dilution method; assay type: functional
Staphylococcus hominis = experiment: Antimicrobial activity against methicillin-resistant Staphylococcus hominis assessed as reduction in bacterial growth incubated for 24 hrs by two-fold broth dilution method; assay type: functional
Staphylococcus aureus [6] = experiment: Antimicrobial activity against methicillin resistant Staphylococcus aureus clinical isolate MRS70 assessed as reduction in bacterial growth incubated for 24 hrs by two-fold broth dilution method; assay type: functional
Staphylococcus aureus [7] = experiment: Antimicrobial activity against methicillin resistant Staphylococcus aureus clinical isolate MRS273 assessed as reduction in bacterial growth incubated for 24 hrs by two-fold broth dilution method; assay type: functional
Staphylococcus aureus [8] = experiment: Antimicrobial activity against methicillin resistant Staphylococcus aureus clinical isolate MRS153 assessed as reduction in bacterial growth incubated for 24 hrs by two-fold broth dilution method; assay type: functional
Staphylococcus aureus [9] = experiment: Antimicrobial activity against methicillin resistant Staphylococcus aureus clinical isolate MRS84 assessed as reduction in bacterial growth incubated for 24 hrs by two-fold broth dilution method; assay type: functional
Staphylococcus aureus [10] = experiment: Antimicrobial activity against methicillin resistant Staphylococcus aureus clinical isolate MRS200 assessed as reduction in bacterial growth incubated for 24 hrs by two-fold broth dilution method; assay type: functional
Staphylococcus aureus [11] = experiment: Antimicrobial activity against methicillin resistant Staphylococcus aureus clinical isolate MRS152 assessed as reduction in bacterial growth incubated for 24 hrs by two-fold broth dilution method; assay type: functional
Staphylococcus aureus [12] = experiment: Antimicrobial activity against methicillin resistant Staphylococcus aureus clinical isolate MRS121 assessed as reduction in bacterial growth incubated for 24 hrs by two-fold broth dilution method; assay type: functional
Staphylococcus aureus [13] = experiment: Antimicrobial activity against methicillin resistant Staphylococcus aureus clinical isolate MRS23 assessed as reduction in bacterial growth incubated for 24 hrs by two-fold broth dilution method; assay type: functional
Streptomyces albus = experiment: Antimicrobial activity against Streptomyces albus SHBC D11158 assessed as reduction in bacterial growth incubated for 24 hrs by two-fold broth dilution method; assay type: functional
Staphylococcus aureus [14] = experiment: Antimicrobial activity against methicillin resistant Staphylococcus aureus clinical isolate MRS1 assessed as reduction in bacterial growth incubated for 24 hrs by two-fold broth dilution method; assay type: functional
Staphylococcus aureus [15] = experiment: Induction of drug resistance in Staphylococcus aureus ATCC6538 assessed as change in MIC measured after 10 passages; assay type: functional
A549 = experiment: Cytotoxicity against human A549 cells assessed as reduction in cell viability measured after 24 hrs by CCK-8 method; assay type: functional, cell-based; conditions: A549, 24 h
[16] = Cytotoxicity against African green monkey Vero E6 cells assessed as reduction in cell viability measured after 24 hrs by CCK-8 method; assay type: toxicity, cell-based, Chlorocebus sabaeus, Vero C1008
Staphylococcus aureus [17] = experiment: Bactericidal activity against Staphylococcus aureus ATCC6538 assessed as reduction in survival rate at 5 to 10 times MIC measured after 30 to 120 mins by colony counting method relative to control; assay type: functional; conditions: time 30-120 min
[18] = Selectivity index, ratio of HC50 for rabbit Red blood cell to MIC for Staphylococcus aureus ATCC6538; assay type: toxicity; conditions: red blood cells (erythrocytes), read-out: Selectivity Index
[19] = Selectivity index, ratio of IC50 for African green monkey Vero E6 cells to MIC for Staphylococcus aureus ATCC6538; assay type: toxicity; conditions: read-out: Selectivity Index
[20] = Cytotoxicity against HEK293 cells assessed as reduction in cell viability measured after 24 hrs by CCK-8 method; assay type: toxicity, cell-based; conditions: human
[21] = Cytotoxicity against human HaCaT cells assessed as reduction in cell viability measured after 24 hrs by CCK-8 method; assay type: toxicity, cell-based
HeLa = experiment: Cytotoxicity against human HeLa cells assessed as reduction in cell viability measured after 24 hrs by CCK-8 method; assay type: functional, cell-based
[22] = Hemolytic activity in rabbit Red blood cell assessed as hemolysis incubated for 1 hr by two-fold microdilution method; assay type: toxicity, cell-based, Oryctolagus cuniculus, Erythrocyte; conditions: red blood cells (erythrocytes)

MIC (Staphylococcus aureus [1]): > 16 µg/mL
MIC (Staphylococcus aureus [2]): > 16 µg/mL
Structure (SMILES): O=C(CCC(F)(F)F)N(Cc1cc2ccccc2s1)c1cc(-c2cncnc2)ccc1O

MIC (Staphylococcus aureus [1]): > 250 µg/mL
MIC (Staphylococcus aureus [2]): > 250 µg/mL
Structure (SMILES): C=CCCC(=O)N(Cc1cc2ccccc2s1)c1ccc2ccccc2c1O

MIC (Staphylococcus aureus [1]): 6 µg/mL (≈ 13.2 µM)
MIC (Staphylococcus aureus [2]): 2 µg/mL (≈ 4.39 µM)
Structure (SMILES): O=C(CCC(F)(F)F)N(Cc1cc2ccccc2s1)c1c(O)cccc1-c1ccccc1

MIC (Staphylococcus aureus [1]): 3 µg/mL (≈ 5.61 µM)
MIC (Staphylococcus aureus [2]): 2 µg/mL (≈ 3.74 µM)
Structure (SMILES): O=C(CCC(F)(F)F)N(Cc1cc2ccccc2s1)c1cc(-c2ccc(Br)cc2)ccc1O

MIC (Staphylococcus aureus [1]): > 16 µg/mL
MIC (Staphylococcus aureus [2]): 2 µg/mL (≈ 4.39 µM)
Structure (SMILES): O=C(CCC(F)(F)F)N(Cc1cc2ccccc2s1)c1ccc(-c2ccccc2)c(O)c1

MIC (Staphylococcus aureus [1]): 31.2 µg/mL (≈ 82.8 µM)
MIC (Staphylococcus aureus [2]): 31.2 µg/mL (≈ 82.8 µM)
Structure (SMILES): CCCCC(=O)N(Cc1ccc2c(c1)OCO2)c1ccc2ccccc2c1O

Structure (SMILES): COc1cccc(-c2ccc(O)c(N(Cc3cc4ccccc4s3)C(=O)CCC(F)(F)F)c2)c1
MIC (Staphylococcus aureus [1]): 1 µg/mL (≈ 2.06 µM)
MIC (Staphylococcus aureus [3]): 6 µg/mL (≈ 12.4 µM)
MIC (Staphylococcus aureus [2]): 1 µg/mL (≈ 2.06 µM)
MIC (Staphylococcus aureus [4]): 6 µg/mL (≈ 12.4 µM)
MIC (Staphylococcus aureus [5]): > 16 µg/mL
MIC (Staphylococcus hominis): > 32 µg/mL
MIC (Staphylococcus aureus [6]): > 16 µg/mL
MIC (Staphylococcus aureus [7]): 16 µg/mL (≈ 33 µM)
MIC (Staphylococcus aureus [8]): > 16 µg/mL
MIC (Staphylococcus aureus [9]): 16 µg/mL (≈ 33 µM)
MIC (Staphylococcus aureus [10]): > 16 µg/mL
MIC (Staphylococcus aureus [11]): > 16 µg/mL
MIC (Staphylococcus aureus [12]): > 16 µg/mL
MIC (Staphylococcus aureus [13]): 6 µg/mL (≈ 12.4 µM)
MIC (Streptomyces albus): > 32 µg/mL
MIC (Staphylococcus aureus [14]): > 16 µg/mL

MIC (Staphylococcus aureus [1]): > 250 µg/mL
MIC (Staphylococcus aureus [2]): > 250 µg/mL
Structure (SMILES): CCCC(=O)N(Cc1cc2ccccc2s1)c1ccc2ccccc2c1O

MIC (Staphylococcus aureus [1]): 62.5 µg/mL (≈ 140 µM)
MIC (Staphylococcus aureus [2]): 62.5 µg/mL (≈ 140 µM)
Structure (SMILES): CCCCC(=O)N(Cc1cc(C(C)(C)C)cc(C(C)(C)C)c1)c1ccc2ccccc2c1O

MIC (Staphylococcus aureus [1]): 31.2 µg/mL (≈ 76.2 µM)
MIC (Staphylococcus aureus [2]): 7.8 µg/mL (≈ 19 µM)
Structure (SMILES): O=C(CCCCl)N(Cc1cc2ccccc2s1)c1ccc2ccccc2c1O

MIC (Staphylococcus aureus [1]): > 16 µg/mL
MIC (Staphylococcus aureus [2]): > 16 µg/mL
Structure (SMILES): O=C(CCC(F)(F)F)N(Cc1cc2ccccc2s1)c1cc(-c2ccccc2C(F)(F)F)ccc1O

MIC (Staphylococcus aureus [1]): > 250 µg/mL
MIC (Staphylococcus aureus [2]): > 250 µg/mL
Structure (SMILES): CCCCCC(=O)N(Cc1cc2ccccc2s1)c1ccc2ccccc2c1O

Structure (SMILES): O=C(CCC(F)(F)F)N(Cc1cc2ccccc2s1)c1cc(-c2ccccc2)ccc1O
MIC (Staphylococcus aureus [1]): 2 µg/mL (≈ 4.39 µM)
MIC (Staphylococcus aureus [3]): 2 µg/mL (≈ 4.39 µM)
MIC (Staphylococcus aureus [2]): 1 µg/mL (≈ 2.2 µM)
MIC (Staphylococcus aureus [4]): 2 µg/mL (≈ 4.39 µM)
Activity (Staphylococcus aureus [15]): inactive
IC50 (A549): 10.7 µg/mL (≈ 23.5 µM)
IC50 at 24 h [16]: 22.9 µg/mL (≈ 50.3 µM)
MIC (Staphylococcus aureus [5]): 2 µg/mL (≈ 4.39 µM)
MIC (Staphylococcus hominis): 6 µg/mL (≈ 13.2 µM)
MIC (Staphylococcus aureus [6]): 3 µg/mL (≈ 6.59 µM)
MIC (Staphylococcus aureus [7]): 3 µg/mL (≈ 6.59 µM)
MIC (Staphylococcus aureus [8]): 3 µg/mL (≈ 6.59 µM)
MIC (Staphylococcus aureus [9]): 2 µg/mL (≈ 4.39 µM)
Survival (Staphylococcus aureus [17]): <1%
selectivity ratio [18]: > 1000
selectivity ratio [19]: 22
MIC (Staphylococcus aureus [10]): 3 µg/mL (≈ 6.59 µM)
IC50 at 24 h [20]: 7.8 µg/mL (≈ 17.1 µM)
IC50 at 24 h [21]: > 25 µg/mL
IC50 (HeLa): > 25 µg/mL
MIC (Staphylococcus aureus [11]): 2 µg/mL (≈ 4.39 µM)
MIC (Staphylococcus aureus [12]): 3 µg/mL (≈ 6.59 µM)
HC50 at 1 h [22]: 1770 µg/mL
MIC (Staphylococcus aureus [13]): 3 µg/mL (≈ 6.59 µM)
MIC (Streptomyces albus): 4 µg/mL (≈ 8.78 µM)
MIC (Staphylococcus aureus [14]): 3 µg/mL (≈ 6.59 µM)

MIC (Staphylococcus aureus [1]): 1 µg/mL (≈ 1.95 µM)
MIC (Staphylococcus aureus [2]): 2 µg/mL (≈ 3.91 µM)
Structure (SMILES): CC(C)(C)c1ccc(-c2ccc(O)c(N(Cc3cc4ccccc4s3)C(=O)CCC(F)(F)F)c2)cc1

MIC (Staphylococcus aureus [1]): 62.5 µg/mL (≈ 160 µM)
MIC (Staphylococcus aureus [2]): 31.2 µg/mL (≈ 80.2 µM)
Structure (SMILES): CCCCC(=O)N(Cc1ccc2sccc2c1)c1ccc2ccccc2c1O

MIC (Staphylococcus aureus [1]): 3 µg/mL (≈ 6.59 µM)
MIC (Staphylococcus aureus [2]): 2 µg/mL (≈ 4.39 µM)
Structure (SMILES): O=C(CCC(F)(F)F)N(Cc1cc2ccccc2s1)c1ccc(-c2ccccc2)cc1O

— ChEMBL document CHEMBL5537201, “Discovery of Unique Bis-Substituted Aromatic Amide Derivatives as Novel Highly Potent Antibiotics for Combating Methicillin-Resistant Staphylococcus aureus (MRSA)” (J Med Chem, 2024)
